Reference: US8618095B2 (Rigel Pharmaceuticals, Inc., priority 2010, dated 2013)
Structures can show the parent of a compound that is named as a salt.

tested on: Human mast cells (CHMC); assay: LD Tryptase release assay in CHMC (mast cell activation induced by FcγR cross-linking); type: cell-based; conditions: Homo sapiens, Mast cell, anti-IgG stimulation, activity of tryptase released upon degranulation
Method: Compounds were assayed for inhibition of mast cell activation induced by FcγR cross-linking by measuring the activity of tryptase released upon degranulation as follows:
Human mast cells were cultured and differentiated from […] progenitor cell as described in U.S. Patent Publication No. 2005-234049, incorporated herein by reference. For example, 65 μL of various concentrations of the compound to be assayed were prepared in MT (137 mM NaCl, 2.7 mM KCl, 1.8 mM CaCl2, 1.0 mM MgCl2, 5.6 mM Glucose, 20 mM Hepes (pH 7.4), 0.1% Bovine Serum Albumin, (Sigma A4503)) containing 2% MeOH and 1% DMSO, or control buffer were added to duplicate 96-well V-bottom plates. Pelleted and re-suspended (in warm MT) CHMC cells (65 μL) were added to each 96-well plate, mixed and incubated for 1 hour at 37° C. 25 μl of 6× anti-IgG Rabbit anti-human IgG, Affinity purified (Bethyl Laboratories Cat No. A80-105A3) final concentration 1 μg/mL, was added to the test wells. MT (25 μL) was added to control wells. After a 60-minute incubation at 37° C., cells and cell debris were pelleted by centrifugation at 1000 rpm for 10 min and tryptase and leukotriene C4 levels were measured.
To measure tryptase levels, 25 μL of supernatant from each well was transferred to a fresh 96-well black bottom plate, to which 100 μL of fresh tryptase substrate solution [(Z-Ala-Lys-Arg-AMC2TFA; Enzyme Systems Products, #AMC-246)] 1:2000 in tryptase assay buffer [0.1 M Hepes (pH 7.5), 10% w/v Glycerol, 10 μM Heparin (Sigma H-4898) 0.01% NaN3] was added. After 30 minute incubation at room temperature, the optical density of the plates is measured at 355 nm/460 nm on a spectrophotometric plate reader. Table 1 provides the IC50 values.
Compounds of the disclosure were assayed for their ability to inhibit mast cell activation induced by FcγR cross-linking by measuring the activity of tryptase released upon degranulation. The IC50 values for the LD Tryptase assay are presented in Table 2, in which “0” is >100 μM; “A” is 1-100 μM; “B” is 0.5-1 μM; “C” is 0.1-0.5 μM; and “D” is less than 0.1 μM: […]

Row | Compound | IC50
1 | Cc1cc(Nc2ncc(F)c(Nc3ccc4c(n3)NC(=O)C(C)(C)O4)n2)ccc1N1CCOCC1 [Compound 23, N4-(2,2-dimethyl-3,4-dihydro-3-oxo-2H-pyrido[3,2-b][1,4]oxazin-6-yl)-5-fluoro-N2-[3-methyl-4-morpholinophenyl]-2,4-pyrimidinediamine] | < 100 nM
2 | COC1CCN(c2ccc(Nc3ncc(F)c(Nc4ccc5c(n4)NC(=O)C(C)(C)O5)n3)cn2)C1 (stereo in doubt) [Compound 56, N4-(2,2-dimethyl-3,4-dihydro-3-oxo-2H-pyrido[3,2-b][1,4]oxazin-6-yl)-5-fluoro-N2-[6-((3R)-3-methoxypyrrolidin-1-yl)pyridin-3-yl]-2,4-pyrimidinediamine] | 100 to 500 nM
3 | C[C@@H]1CN(c2ccc(Nc3ncc(F)c(Nc4ccc5c(n4)NC(=O)C(C)(C)O5)n3)cc2)C[C@H](C)O1 [Compound 36, rac-Cis-N4-(2,2-dimethyl-3,4-dihydro-3-oxo-2H-pyrido[3,2-b][1,4]oxazin-6-yl)-5-fluoro-N2-[4-(2,6-dimethylmorpholino)phenyl]-2,4-pyrimidinediamine] | 100 to 500 nM
4 | C[C@@H]1CN(c2ccc(Nc3ncc(F)c(Nc4ccc5c(n4)NC(=O)CO5)n3)cn2)CCO1 [Compound 6, N4-(3,4-dihydro-3-oxo-2H-pyrido[3,2-b][1,4]oxazin-6-yl)-5-fluoro-N2-[6-((2R)-2-methylmorpholino)pyridin-3-yl]-2,4-pyrimidinediamine] | < 100 nM
5 | CC1(C)Oc2ccc(Nc3nc(Nc4cnc(N5CCOCC5)c(F)c4)ncc3F)nc2NC1=O [Compound 10, N4-(2,2-dimethyl-3,4-dihydro-3-oxo-2H-pyrido[3,2-b][1,4]oxazin-6-yl)-5-fluoro-N2-[5-fluoro-6-morpholinopyridin-3-yl]-2,4-pyrimidinediamine] | 100 to 500 nM
6 | CCN[C@@H]1CCN(c2ccc(Nc3ncc(F)c(Nc4ccc5c(n4)NC(=O)C(C)(C)O5)n3)cn2)C1 [Compound 68, N4-(2,2-dimethyl-3,4-dihydro-3-oxo-2H-pyrido[3,2-b][1,4]oxazin-6-yl)-5-fluoro-N2-[6-((3R)-3-(ethylamino)pyyriolidin-1-yl)pyridin-3-yl]-2,4-pyrimidinediamine] | 100 to 500 nM
7 | CC1(C)Oc2ccc(Nc3nc(Nc4ccc(N5CCC(O)CC5)cc4)ncc3F)nc2NC1=O [Compound 77, N4-(2,2-dimethyl-3,4-dihydro-3-oxo-2H-pyrido[3,2-b][1,4]oxazin-6-yl)-5-fluoro-N2-[4-(4-hydroxypiperidin-1-yl)phenyl]-2,4-pyrimidinediamine] | < 100 nM
8 | Cc1cc(Nc2ncc(F)c(Nc3ccc4c(n3)NC(=O)C(C)(C)O4)n2)cnc1N1CCOC(C)(C)C1 [Compound 14, N4-(2,2-dimethyl-3,4-dihydro-3-oxo-2H-pyrido[3,2-b][1,4]oxazin-6-yl)-5-fluoro-N2-[5-methyl-6-(2,2-dimethylmorpholino)pyridin-3-yl]-2,4-pyrimidinediamine] | 500 to 1000 nM
9 | CC1(C)Oc2ccc(Nc3nc(Nc4ccc(N5CCCCC5)cc4)ncc3F)nc2NC1=O [Compound 78, N4-(2,2-dimethyl-3,4-dihydro-3-oxo-2H-pyrido[3,2-b][1,4]oxazin-6-yl)-5-fluoro-N2-[4-(piperidin-1-yl)phenyl]-2,4-pyrimidinediamine] | 1000 to 100000 nM
10 | CC1(C)Oc2ccc(Nc3nc(Nc4ccc(N5CCOCC5)c(F)c4)ncc3F)nc2NC1=O [Compound 26, N4-(2,2-dimethyl-3,4-dihydro-3-oxo-2H-pyrido[3,2-b][1,4]oxazin-6-yl)-5-fluoro-N2-[3-fluoro-4-morpholinophenyl]-2,4-pyrimidinediamine] | < 100 nM
11 | CN1CCN(c2ccc(Nc3ncc(F)c(Nc4ccc5c(n4)NC(=O)CO5)n3)cn2)CC1 [Compound 19, N4-(3,4-dihydro-3-oxo-2H-pyrido[3,2-b][1,4]oxazin-6-yl)-5-fluoro-N2-[6-(4-methylpiperazin-1-yl)pyridin-3-yl]-2,4-pyrimidinediamine] | 1000 to 100000 nM

Further lines, results first:

Row | IC50 | Compound
12 | 100 to 500 nM | CN(C)c1ccc(Nc2ncc(F)c(Nc3ccc4c(n3)NC(=O)C(C)(C)O4)n2)cn1 [Compound 147, N4-(2,2-dimethyl-3,4-dihydro-3-oxo-2H-pyrido[3,2-b][1,4]oxazin-6-yl)-5-fluoro-N2-[6-(dimethylamino)pyridin-3-yl]-2,4-pyrimidinediamine]
13 | 1000 to 100000 nM | CC1(C)Oc2ccc(Nc3nc(Nc4ccc(N5CC(O)C5)nc4)ncc3F)nc2NC1=O [Compound 146, N4-(2,2-dimethyl-3,4-dihydro-3-oxo-2H-pyrido[3,2-b][1,4]oxazin-6-yl)-5-fluoro-N2-[6-(3-hydroxyazetidin-1-yl)pyridin-3-yl]-2,4-pyrimidinediamine]
14 | 100 to 500 nM | CC1(C)Oc2ccc(Nc3nc(Nc4ccc(N5CCC6(CCOC6)CC5)nc4)ncc3F)nc2NC1=O [Compound 144, N4-(2,2-dimethyl-3,4-dihydro-3-oxo-2H-pyrido[3,2-b][1,4]oxazin-6-yl)-5-fluoro-N2-[6-(2-oxa-8-azaspiro[4.5]decan-8-yl)pyridin-3-yl]-2,4-pyrimidinediamine]
15 | < 100 nM | C[C@@H]1CN(c2ccc(Nc3ncc(F)c(Nc4ccc5c(n4)NC(=O)C(C)(C)O5)n3)cc2)CCO1 [Compound 118, N4-(2,2-dimethyl-3,4-dihydro-3-oxo-2H-pyrido[3,2-b][1,4]oxazin-6-yl)-5-fluoro-N2-[4-((2R)-2-methylmorpholino)phenyl]-2,4-pyrimidinediamine]
16 | 100 to 500 nM | CCOC[C@@H]1CN(c2ccc(Nc3ncc(F)c(Nc4ccc5c(n4)NC(=O)C(C)(C)O5)n3)cn2)CCO1 [Compound 101, N4-(2,2-dimethyl-3,4-dihydro-3-oxo-2H-pyrido[3,2-b][1,4]oxazin-6-yl)-N2-[6-(((2S)-2-ethoxymethyl)morpholino)pyridin-3-yl]-5-fluoro-2,4-pyrimidinediamine]
17 | 500 to 1000 nM | COCCN(C)c1ccc(Nc2ncc(F)c(Nc3ccc4c(n3)NC(=O)CO4)n2)cn1 [Compound 98]
18 | 100 to 500 nM | C[C@@H]1CN(c2ccc(Nc3ncc(F)c(Nc4ccc5c(n4)NC(=O)C(C)(C)O5)n3)cn2)C[C@H](C)O1 [Compound 96, rac-Cis-N4-(2,2-dimethyl-3,4-dihydro-3-oxo-2H-pyrido[3,2-b][1,4]oxazin-6-yl)-N2-[6-(2,6-dimethylmorpholino)pyridin-3-yl]-5-fluoro-2,4-pyrimidinediamine]
19 | < 100 nM | CC1(C)Oc2ccc(Nc3nc(Nc4ccc5ccncc5c4)ncc3F)nc2NC1=O [Compound 133, N4-(2,2-dimethyl-3,4-dihydro-3-oxo-2H-pyrido[3,2-b][1,4]oxazin-6-yl)-5-fluoro-N2-(isoquinolin-7-yl)-2,4-pyrimidinediamine]
20 | 1000 to 100000 nM | CC1(C)Oc2ccc(Nc3nc(Nc4ccc(N5CCSCC5)cc4)ncc3F)nc2NC1=O [Compound 153, N4-(2,2-dimethyl-3,4-dihydro-3-oxo-2H-pyrido[3,2-b][1,4]oxazin-6-yl)-5-fluoro-N2-[4-thiomorpholinophenyl]-2,4-pyrimidinediamine]
21 | 100 to 500 nM | CC1(C)Oc2ccc(Nc3nc(Nc4ccc(N5CCC(N)CC5)cc4)ncc3F)nc2NC1=O [Compound 90, N4-(2,2-dimethyl-3,4-dihydro-3-oxo-2H-pyrido[3,2-b][1,4]oxazin-6-yl)-5-fluoro-N2-[4-(4-aminopiperidin-1-yl)phenyl]-2,4-pyrimidinediamine]
22 | 100 to 500 nM | CC1(C)Oc2ccc(Nc3nc(Nc4ccc(N5CCNC(=O)C5)cc4)ncc3F)nc2NC1=O [Compound 151, N4-(2,2-dimethyl-3,4-dihydro-3-oxo-2H-pyrido[3,2-b][1,4]oxazin-6-yl)-5-fluoro-N2-[4-(3-oxopiperazin-1-yl)phenyl]-2,4-pyrimidinediamine]

same assay, conditions: anti-IgG stimulation, activity of tryptase released upon degranulation

Row | Compound | IC50
23 | C[C@H]1COCCN1c1ccc(Nc2ncc(F)c(Nc3ccc4c(n3)N(COP(=O)(O)O)C(=O)C(C)(C)O4)n2)cn1 [Compound 97, N4-(2,2-dimethyl-3,4-dihydro-4-[(dihydrogenphosphonoxy)methyl]-3-oxo-2H-pyrido[3,2-b][1,4]oxazin-6-yl)-5-fluoro-N2-[6-((3S)-3-methylmorpholino)pyridin-3-yl]-2,4-pyrimidinediamine disodium salt] | 1000 to 100000 nM
24 | Cc1cc(Nc2ncc(F)c(Nc3ccc4c(n3)N(COP(=O)(O)O)C(=O)C(C)(C)O4)n2)ccc1N1CCOCC1 [Compound 112, N4-(2,2-dimethyl-3,4-dihydro-4-[(dihydrogenphosphonoxy)methyl]-3-oxo-2H-pyrido[3,2-b][1,4]oxazin-6-yl)-5-fluoro-N2-(3-methyl-4-morpholinophenyl)-2,4-pyrimidinediamine disodium salt] | 500 to 1000 nM
